Experimental findings from US6939865B2, “Pharmaceutical dronedarone composition for parenteral administration” (Sanofi-Aventis, priority 2000, dated 2005) are described below.

Data set [1] in a line: Aqueous solubility of dronedarone hydrochloride. The class given is physicochemical. The source says: As indicated above, the above β-cyclodextrin derivatives, when they are used in combination with an appropriate buffer, for example a phosphate buffer, in the compositions of the invention, make it possible in particular to increase the aqueous solubility of dronedarone or of its pharmaceutically acceptable salts.

Data set [2] relates to male rats. The data set is described as follows: Local tolerance in animals (intravenous injection in caudal vein). Particulars: several days. The class given is in vivo. Here is the method:
Tests were carried out for the purpose of evaluating the local tolerance of various aqueous compositions comprising dronedarone hydrochloride or only the corresponding vehicle as placebo.
To this end, a dose of one the aqueous compositions hereinbelow was administered daily for 5 days via the intravenous route to batches of 5 male rats. The injection was made in the caudal vein, preferably in the distal region, then in the median region and finally in the proximal region. The animals were then sacrificed on the 8th day and the tails were removed for the purpose of possible microscopic examination.

Data set [3] is described as follows: Surface tension in aqueous solution (surfactant properties). The following applies: with or without phosphate buffer. It counts as physicochemical. The protocol:
This surfactant nature moreover proves to be as powerful in the presence as in the absence of a phosphate buffer and can be held as being partially responsible for a self-aggregation of dronedarone molecules in aqueous solution. In fact, this supramolecular organization in solution is due to the formation of dimers positioned head to tail and stacked in superimposed layers. These dimers, when they are administered by injection, lead to rupturing of the cell membrane and, consequently, to the appearance of inflammation at the injection site. Generally, these surfactant properties of dronedarone can be regarded as responsible for poor tolerance of the composition in which they are present.

Where a name gives a salt, the structure may show the parent alone. Read-outs that look alike come from different tables or passages of the source.

On to `CCCCc1oc2ccc(NS(C)(=O)=O)cc2c1C(=O)c1ccc(OCCCN(CCCC)CCCC)cc1` [dronedarone hydrochloride, 2-butyl-3-(4-[[3-(dibutylamino)propoxy]]benzoyl)-5-(methanesulphonamido)benzofuran], for which the solubility in data set [1] (aqueous medium, aqueous buffer, ambient temperature, pH=4.85, read-out: solubility in an aqueous medium) was 500 µg/mL; in data set [1] (mono-sodium phosphate buffer (NaH2PO4), aqueous buffer, ambient temperature, pH range from 1.5 to 5, read-out: solubility in the presence of a mono-sodium phosphate buffer (NaH2PO4)) it was 2000 to 2250 µg/mL; in data set [1] (phosphate buffer with hydroxypropyl-β-cyclodextrin, aqueous with cosolvent or surfactant or cyclodextrin, 100 mmolar phosphate buffer and 5% of hydroxypropyl-β-cyclodextrin, read-out: solubility) it was roughly 6500 µg/mL. In addition, the “solubility in an aqueous medium” value in data set [1] (pH range from 1.5 to 5) is “virtually constant”; in data set [1] (pH values of greater than 5.5), “virtually negligible”. Further, the “solubility in the presence of a mono-sodium phosphate buffer (NaH2PO4)” value in data set [1] (pH=5.5) is on record as “virtually zero”. The “tolerance at the injection site” value in data set [2] (aqueous formulation 1.065 mg/ml dronedarone hydrochloride with hydroxypropyl-β-cyclodextrin) is reported as “marked intolerance”. In addition, in data set [2] (aqueous formulation 1.065 mg/ml dronedarone hydrochloride with phosphate buffer), the local tolerance entry is recorded as “poor local tolerance”.

Turning to `CCCCc1oc2ccc(NS(C)(=O)=O)cc2c1C(=O)c1ccc(OCCCN(CCCC)CCCC)cc1` [dronedarone, 2-butyl-3-(4-[[3-(dibutylamino)propoxy]]benzoyl)-5-(methanesulphonamido)benzofuran], the “effect on surface tension” value in data set [3] is “marked decrease”.
